Reference: patent publication US9408854B2, “Methods and systems for pharmacogenomic treatment of cardiovascular conditions” (ROSTAQUO S.P.A., priority 2009, dated 2016)

Tested on: hypertensive patients
Test: Two separate studies: blood pressure change with HCTZ, Losartan and rostafuroxin in patients carrying profile 4, 8 or 9
Format: in vivo, human
Settings: preliminary data; for modification in blood pressure: individuals carrying profile 4
Text: In particular, individuals carrying profile 4 show a modification in blood pressure of: −12.3±1.5 mmHg with HCTZ; −11.3±1.7 with Losartan and −18.74±1.8 mmHg with rostafuroxin; individuals with profile 8 show the a decrease in blood pressure of −11.3±1.2 with HCTZ; −11.6±1.3 with Losartan and −15.2±1.5 mmHg with rostafuroxin; individuals with profile 9 show the a decrease in blood pressure of −11.9±1.2 with HCTZ; −11.4±1.4 with Losartan and −15.2±1.5 mmHg with rostafuroxin.

CCCCc1nc(Cl)c(CO)n1Cc1ccc(-c2ccccc2-c2nnn[nH]2)cc1 [Losartan, (2-butyl-4-chloro-1-{[2′-(1H-tetrazol-5-yl)biphenyl-4-yl]methyl}-1H-imidazol-5-yl)methanol]
modification in blood pressure: −11.3±1.7 mmHg
decrease in blood pressure (individuals with profile 8): −11.6±1.3 mmHg
decrease in blood pressure (individuals with profile 9): −11.4±1.4 mmHg

NS(=O)(=O)c1cc2c(cc1Cl)NCNS2(=O)=O [HCTZ, 6-chloro-1,1-dioxo-3,4-dihydro-2H-1,2,4-benzothiadiazine-7-sulfonamide]
modification in blood pressure: −12.3±1.5 mmHg
decrease in blood pressure (individuals with profile 8): −11.3±1.2 mmHg
decrease in blood pressure (individuals with profile 9): −11.9±1.2 mmHg
